Reference: patent publication US12697330B2, “Therapeutic methods using vadadustat” (Akebia Therapeutics, Inc., priority 2021, dated 2026)

Tested on: hemoglobin (Hb)
Assay: Phase 2 study in hemodialysis subjects converting from epoetin alfa, Main Study: efficacy (hemoglobin)
Type: in vivo, human
Conditions: for Change in Hb from Primary Evaluation Period to Secondary Evaluation Period, Mean (SD) / Change in Hb from Primary Evaluation Period to Secondary Evaluation Period, Median / Hb at Primary Evaluation Period (Average of Weeks 10 to 12), Mean (SD) / Hb at Primary Evaluation Period (Average of Weeks 10 to 12), Median / Hb at Secondary Evaluation Period (Average of Weeks 18 to 20), Mean (SD) / Hb at Secondary Evaluation Period (Average of Weeks 18 to 20), Median: completed 12 weeks of treatment
Text: The primary objective was to assess the efficacy and safety of daily dosing of vadadustat compared to epoetin alfa for 12 weeks in hemodialysis subjects. Additional objectives included to assess the efficacy and safety of three times weekly (TIW) dosing of vadadustat in selected hemodialysis subjects who have been successfully managed with daily dosing of vadadustat through Week 12, to evaluate the PK/PD of daily and TIW dosing of vadadustat in hemodialysis subjects compared to epoetin alfa, and to assess the efficacy and safety of several dosing strategies of vadadustat compared to epoetin alfa during a 20-week Treatment Period in hemodialysis subjects.
The Main study population consisted of adult subjects receiving chronic, outpatient in-center hemodialysis three times weekly (TIW), with 2 screening hemoglobin (Hb) values between 8.5 and 11.0 g/dL (inclusive) and on maintenance treatment with epoetin alfa <300 U/kg/week.
Efficacy Endpoints. The primary endpoint was the mean change in Hb between Baseline (average pretreatment Hb) and the primary evaluation period (average Hb from Weeks 10 to 12). Secondary endpoints included proportion of subjects with Hb values within the target range (10.0 to 11.0 g/dL, inclusive) at the primary evaluation period (Weeks 10-12) and for subjects who transitioned to TIW vadadustat dosing, mean change in Hb from primary evaluation period (average Hb from Weeks 10-12) to the secondary period (average Hb from Weeks 18-20). Other secondary endpoints included mean change in Hb from Baseline (average pretreatment Hb) and the secondary evaluation period (average Hb from Weeks 18-20), proportion of subjects with Hb values within the target range (10.0 to 11.0 g/dL, inclusive) at the secondary evaluation period (Weeks 18 to 20), for subjects who transitioned to TIW vadadustat dosing, proportion of subjects with Hb values within the target range (10.0 to 11.0 g/dL, inclusive) at the secondary evaluation period (Weeks 18-20), proportion of subjects with a mean increase in Hb from Baseline to the primary evaluation period ≥0.5 g/dL (average Hb from Weeks 10-12) or with Hb values within the target range (10.0 to 11.0 g/dL, inclusive) at the primary evaluation period (Weeks 10-12), proportion of subject with a mean increase in Hb from Baseline to the secondary evaluation period ≥0.5 g/dL (average Hb from Weeks 18-20) or with Hb values within the target range (10.0 to 11.0 g/dL, inclusive) at the secondary evaluation period (Weeks 18-20), intravenous (IV) iron supplementation, ESA rescue, and RBC transfusion.
Study Design. This was a Phase 2, randomized, open-label study to evaluate vadadustat for the treatment of anemia in hemodialysis subjects converting from epoetin alfa therapy. For all subjects (Main study and ESA hyporesponder parallel study), the study included a Screening Period, a study Treatment Period, and a Safety Follow-Up Period as described below. PK and PD sampling were done throughout the study. The aim was to achieve and maintain Hb levels within the target range of 10.0 to 11.0 g/dL, inclusive, while targeting the middle of the range and minimizing excursions outside the target range.
Randomization. Subjects were randomized to either a vadadustat treatment arm or epoetin alfa treatment arm. Randomization was stratified by mean weekly epoetin alfa dose calculated over a period of 8 weeks prior to SV2: low epoetin alfa dose group (≤90 U/kg/week) or high epoetin alfa dose group (>90 to <300 U/kg/week). In the low epoetin alfa dose group, subjects were randomized in a 3:3:2 ratio to receive either an initial vadadustat daily dose of 450 mg (3 tablets) or 300 mg (2 tablets), or epoetin alfa. In the high epoetin alfa dose group, subjects were randomized in a 3:3:3:2 ratio to receive either an initial vadadustat daily dose of 600 mg (4 tablets), 450 mg (3 tablets) or 300 mg (2 tablets), or epoetin alfa.
Study Treatment Period (Baseline/Day 1 to Week 20). […]

[1] = Vadadustat, subjects did not switch
[2] = Vadadustat, subjects switched from QD to TIW
[3] = whole treatment group, Main Study

Structure (SMILES): O=C(O)CNC(=O)c1ncc(-c2cccc(Cl)c2)cc1O [vadadustat, {[5-(3-chlorophenyl)-3-hydroxypyridine-2-carbonyl]amino}acetic acid]
- Mean change from baseline in Hb over time, versus comparator (Randomized population, FIG. 13 and FIG. 14): lower than the epoetin alfa treatment group throughout
- Change in Hb from Primary Evaluation Period to Secondary Evaluation Period, Mean (SD) (Vadadustat Total, Overall): −0.064 (1.2236) g/dL
- Change in Hb from Primary Evaluation Period to Secondary Evaluation Period, Median (Vadadustat Total, Overall): -0.033 g/dL
- Hb at Primary Evaluation Period (Average of Weeks 10 to 12), Mean (SD) (Vadadustat Total, Overall): 9.809 (1.1548) g/dL
- Hb at Primary Evaluation Period (Average of Weeks 10 to 12), Median (Vadadustat Total, Overall): 9.900 g/dL
- Hb at Secondary Evaluation Period (Average of Weeks 18 to 20), Mean (SD) (Vadadustat Total, Overall): 9.876 (0.8867) g/dL
- Hb at Secondary Evaluation Period (Average of Weeks 18 to 20), Median (Vadadustat Total, Overall): 9.800 g/dL
- Change in Hb from Primary Evaluation Period to Secondary Evaluation Period, Mean (SD) [1]: 0.039 g/dL
- Change in Hb from Primary Evaluation Period to Secondary Evaluation Period, Median [1]: 0.067 g/dL
- Hb at Primary Evaluation Period (Average of Weeks 10 to 12), Mean (SD) [1]: 9.694 (1.2248) g/dL
- Hb at Primary Evaluation Period (Average of Weeks 10 to 12), Median [1]: 9.483 g/dL
- Hb at Secondary Evaluation Period (Average of Weeks 18 to 20), Mean (SD) [1]: 9.854 (0.8378) g/dL
- Hb at Secondary Evaluation Period (Average of Weeks 18 to 20), Median [1]: 9.800 g/dL
- Change in Hb from Primary Evaluation Period to Secondary Evaluation Period, Mean (SD) (Vadadustat, subjects did not switch, listed as Vadadustat): 0.039 (1.2286) g/dL
- Change in Hb from Primary Evaluation Period to Secondary Evaluation Period, Mean (SD) [2]: -0.422 g/dL
- Change in Hb from Primary Evaluation Period to Secondary Evaluation Period, Median [2]: -0.350 g/dL
- Hb at Primary Evaluation Period (Average of Weeks 10 to 12), Mean (SD) [2]: 10.376 (0.3754) g/dL
- Hb at Primary Evaluation Period (Average of Weeks 10 to 12), Median [2]: 10.433 g/dL
- Hb at Secondary Evaluation Period (Average of Weeks 18 to 20), Mean (SD) [2]: 9.955 (1.0716) g/dL
- Hb at Secondary Evaluation Period (Average of Weeks 18 to 20), Median [2]: 9.900 g/dL
- Change in Hb from Primary Evaluation Period to Secondary Evaluation Period, Mean (SD) (Vadadustat, subjects switched from QD to TIW, listed as Vadadustat): −0.422 (1.1708) g/dL
- proportion of subjects having Hb values within target range at Weeks 10 to 12 (vadadustat 300 mg group of the high epoetin alfa stratum): 8.3%
- course of Hb versus baseline (vadadustat 300 mg, high epoetin alfa stratum): decrease from baseline in Hb up to Week 10, after which Hb began to return towards baseline
- mean (SD) Hb at the PEP (Weeks 10 to 12) [3]: 9.78 (1.048) g/dL
- mean (SD) changes from baseline in Hb at the PEP [3]: −0.35 (0.976) g/dL
- proportion of subjects having Hb values within target range at the PEP (Weeks 10 to 12) [3]: 32.7%
